Test results as given in US12492403B2, “Aptamers and the use thereof in the treatment of cancer” (FUNDACIÓN PARA LA INVESTIGACIÓN BIOMÉDICA DEL HOSPITAL …, priority 2018, dated 2025).

What was measured:
Type in all cases: cell-based, human
MCF7 cells = test: MTT activity assay, aptamers transfected with Lipofectamine 2000
Experimental: (§1) FIG. 3. Effect of the aptamers on MTT activity of MCF7 and MDA-MB-231 cells. The cells were seeded in 96-well plates at a density of 10^4 cells/well. After 16-24 hours, they were transfected with aptamers apMNKQ1, apMNKQ2, apMNKQ3, and apMNKQ4 at 250 nM for 48 hours after which MTT activity assays were performed. The bars represent the mean±SEM of 3-6 independent experiments (*p<0.05, **p<0.01, and ***p<0.001 with respect to the control aptamer AT).
(§2) FIGS. 8A-8C. Effect of aptamer apMNKQ2 on MTT activity of breast cell lines. MCF7, MDA-MB-231, and MDA-MB-468 cells were seeded in 96-well plates at a density of 10^4 cells/well. […] The graphs represent the means±SEM of 3 independent experiments (*p<0.05, **p<0.01, and ***p<0.001 with respect to the control AT).
(§3) The Lipofectamine™ 2000 system (Invitrogen, USA) was used to treat cells with the different aptamers. To prepare the DNA-lipofectamine complex, lipofectamine and DNA were separately diluted in opti-MEM (Gibco, USA) and left to incubate at room temperature for 5 minutes. They were then mixed to form lipofectamine-DNA complexes and incubated for 20 minutes at room temperature. Finally, the mixture was added to the cells that had been washed twice with antibiotic-free medium to prevent the interference thereof with lipofectamine. The cells were incubated at 37° C. for 5 hours, after which the reagent was removed and a complete medium was added.
(§4) MTT activity. The cells were seeded in 96-well plates and after having been transfected, the culture medium was removed and 100 μL/well of MTT at 1 mg/ml in culture medium were added. The plates were incubated for 90 minutes in an incubator with a moisture-saturated environment at 37° C. and 5% CO2/[…] and 100 μL/well of a lysis solution (10% SDS and 10 mM HCl) were added for dissolving the crystals. After 48 hours, the reduction of MTT was determined by means of spectrophotometry in Infinite F200 (TECAN, Switzerland) at 540 nm.
(§5) The results were expressed as the percentage of viability with respect to the control or in absorbance units.

MDA-MB-231 cells = test: as above
Experimental: as §1, §2, §3, §4, §5

[1] = test system: MCF7, MDA-MB-231, and MDAMB-468 cells; test: Aptamer penetration into cells (Alexa-488 fluorescence microscopy); details: Alexa fluor 488-conjugated aptamer 250 nM added to medium, 24 hours, compared with lipofectamine transfection
Experimental: FIGS. 16A & 16B. Study of aptamer apMNKQ2 penetration into cells. MCF7, MDA-MB-231, and MDAMB-468 cells were seeded in 24-well plates with a cover glass at a density of 3×10^4 cells/well, with the transfection/addition of apMNKQ2 labeled with Alexa-488 at 250 nM at 24 hours. Twenty-four hours after transfection, the cells were fixed, stained with Hoechst, and mounted on slides with Prolong™ mounting medium. The number refers to the intensity of the aptamer measured with the imageJ program and expressed in arbitrary units.
To analyze cell penetration by apMNKQ2, 3×10^4 cells/well were seeded on cover glasses and the structured, Alexa fluor 488-conjugated aptamer at 250 nM was added to the cell medium at 24 hours. In parallel, the aptamer was transfected with lipofectamine at the same concentration. After 24 hours, the cells were fixed and stained with Hoechst.

With “5′TGGGGTGGGCGGGCGGGGGTGGGGGTGGT-3′ (DNA, backbone and methylation of C not given here; further chemistry not fully specified) [apMNKQ2]” the GI50 (MCF7 cells; MCF7, MTT activity at 48 hours, 0 to 500 nM) was 42 nM, the “cell proliferation (MTT activity) reduced to” value (MCF7 cells; MCF7, aptamer 250 nM, 48 hours after transfection) was 51% and the GI50 (MDA-MB-231 cells; MDA-MB-231, MTT activity at 48 hours, 0 to 500 nM) was 144 nM. For the same substance, the “cell proliferation (MTT activity) reduced to” value (MDA-MB-231 cells; MDA-MB-231, aptamer 250 nM, 48 hours after transfection) was 36% and the “penetration into cells without transfectant” value [1] was “capable of only entering the cells, although with a lower intensity”.
